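Briefly, cells in 96-well plates were exposed to five compound concentrations for 48 h, and endpoints were estimated by linear interpolation. TGI: concentration producing complete growth inhibition.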
Experiments:
Test in all cases: growth of human tumour cells (NCI), 48 h
K-562 leukemia = tested on: K-562 leukemia
UO-31 renal = tested on: UO-31 renal
BT-549 breast = tested on: BT-549 breast
MOLT-4 leukemia = tested on: MOLT-4 leukemia
SNB-19 CNS = tested on: SNB-19 CNS
SF-539 CNS = tested on: SF-539 CNS
SW-620 colon = tested on: SW-620 colon
EKVX NSCLC = tested on: EKVX NSCLC
MDA-MB-435 = tested on: MDA-MB-435
CAKI-1 renal = tested on: CAKI-1 renal
UACC-257 melanoma = tested on: UACC-257 melanoma
NCI-H23 lung = tested on: NCI-H23 lung
NCI-H460 lung = tested on: NCI-H460 lung
MDA-N = tested on: MDA-N
HT29 colon = tested on: HT29 colon
COLO 205 colon = tested on: COLO 205 colon
HOP-92 NSCLC = tested on: HOP-92 NSCLC
HCT-116 colon = tested on: HCT-116 colon
NCI-H226 lung = tested on: NCI-H226 lung
U251 CNS = tested on: U251 CNS
CCRF-CEM leukemia = tested on: CCRF-CEM leukemia
SK-MEL-5 melanoma = tested on: SK-MEL-5 melanoma
LOX IMVI melanoma = tested on: LOX IMVI melanoma
SF-268 CNS = tested on: SF-268 CNS
SF-295 CNS = tested on: SF-295 CNS
ACHN renal = tested on: ACHN renal
RPMI-8226 leukemia = tested on: RPMI-8226 leukemia
HCT-15 colon = tested on: HCT-15 colon
KM12 colon = tested on: KM12 colon
OVCAR-3 ovarian = tested on: OVCAR-3 ovarian
NCI/ADR-RES ovarian = tested on: NCI/ADR-RES ovarian
DU-145 prostate = tested on: DU-145 prostate
OVCAR-5 ovarian = tested on: OVCAR-5 ovarian
HL-60(TB) leukemia = tested on: HL-60(TB) leukemia
RXF 393 renal = tested on: RXF 393 renal
HS 578T breast = tested on: HS 578T breast
MDA-MB-231 breast = tested on: MDA-MB-231 breast
T-47D breast = tested on: T-47D breast
OVCAR-4 ovarian = tested on: OVCAR-4 ovarian
PC-3 prostate = tested on: PC-3 prostate
NCI-H522 lung = tested on: NCI-H522 lung
A498 renal = tested on: A498 renal
SN12C renal = tested on: SN12C renal
TK-10 renal = tested on: TK-10 renal
MCF7 breast = tested on: MCF7 breast
M14 melanoma = tested on: M14 melanoma
A549 NSCLC = tested on: A549 NSCLC
SK-OV-3 ovarian = tested on: SK-OV-3 ovarian
HOP-62 NSCLC = tested on: HOP-62 NSCLC
UACC-62 melanoma = tested on: UACC-62 melanoma
IGROV1 ovarian = tested on: IGROV1 ovarian
HCC-2998 colon = tested on: HCC-2998 colon
786-0 renal = tested on: 786-0 renal
SK-MEL-28 melanoma = tested on: SK-MEL-28 melanoma
OVCAR-8 ovarian = tested on: OVCAR-8 ovarian
SK-MEL-2 melanoma = tested on: SK-MEL-2 melanoma
SNB-75 CNS = tested on: SNB-75 CNS
SR leukemia = tested on: SR leukemia

COC(=O)C(CCC1CC(OC)N(C(=O)OCc2ccccc2)C1)N=Cc1ccccc1 (stereo not drawn) gave a TGI (K-562 leukemia) greater than 100 µM, a TGI (UO-31 renal) greater than 100 µM and a TGI (BT-549 breast) greater than 100 µM. For the same molecule, the TGI (MOLT-4 leukemia) was greater than 100 µM, the TGI (SNB-19 CNS) was greater than 100 µM and the TGI (SF-539 CNS) was greater than 100 µM. The TGI (SW-620 colon) was greater than 100 µM, the TGI (EKVX NSCLC) was greater than 100 µM and the TGI (MDA-MB-435) was greater than 100 µM. For the same molecule, the TGI (CAKI-1 renal) was greater than 100 µM, the TGI (UACC-257 melanoma) was greater than 100 µM and the TGI (NCI-H23 lung) was greater than 100 µM. It also gave a TGI (NCI-H460 lung) greater than 100 µM, a TGI (MDA-N) greater than 100 µM and a TGI (HT29 colon) greater than 100 µM. For the same molecule, the TGI (COLO 205 colon) was 78.7 µM, the TGI (HOP-92 NSCLC) was greater than 100 µM and the TGI (HCT-116 colon) was greater than 100 µM. For the same molecule, the TGI (NCI-H226 lung) was greater than 100 µM, the TGI (U251 CNS) was greater than 100 µM and the TGI (CCRF-CEM leukemia) was greater than 100 µM. It also gave a TGI (SK-MEL-5 melanoma) of 83.9 µM, a TGI (LOX IMVI melanoma) greater than 100 µM and a TGI (SF-268 CNS) greater than 100 µM. It also gave a TGI (SF-295 CNS) greater than 100 µM, a TGI (ACHN renal) greater than 100 µM and a TGI (RPMI-8226 leukemia) of 91.7 µM. For the same molecule, the TGI (HCT-15 colon) was greater than 100 µM, the TGI (KM12 colon) was greater than 100 µM and the TGI (OVCAR-3 ovarian) was greater than 100 µM. The TGI (NCI/ADR-RES ovarian) was greater than 100 µM, the TGI (DU-145 prostate) was greater than 100 µM and the TGI (OVCAR-5 ovarian) was greater than 100 µM. For the same molecule, the TGI (HL-60(TB) leukemia) was greater than 100 µM, the TGI (RXF 393 renal) was greater than 100 µM and the TGI (HS 578T breast) was greater than 100 µM. For the same molecule, the TGI (MDA-MB-231 breast) was greater than 100 µM, the TGI (T-47D breast) was greater than 100 µM and the TGI (OVCAR-4 ovarian) was greater than 100 µM. The TGI (PC-3 prostate) was greater than 100 µM, the TGI (NCI-H522 lung) was 72.9 µM and the TGI (A498 renal) was greater than 100 µM. The TGI (SN12C renal) was greater than 100 µM, the TGI (TK-10 renal) was greater than 100 µM and the TGI (MCF7 breast) was greater than 100 µM. The TGI (M14 melanoma) was greater than 100 µM, the TGI (A549 NSCLC) was greater than 100 µM and the TGI (SK-OV-3 ovarian) was greater than 100 µM. It also gave a TGI (HOP-62 NSCLC) greater than 100 µM, a TGI (UACC-62 melanoma) greater than 100 µM and a TGI (IGROV1 ovarian) greater than 100 µM. It also gave a TGI (HCC-2998 colon) greater than 100 µM, a TGI (786-0 renal) greater than 100 µM and a TGI (SK-MEL-28 melanoma) greater than 100 µM. For the same molecule, the TGI (OVCAR-8 ovarian) was greater than 100 µM, the TGI (SK-MEL-2 melanoma) was 78.8 µM and the TGI (SNB-75 CNS) was greater than 100 µM. The TGI (SR leukemia) was greater than 100 µM.

Source: PubChem BioAssay (NCI)
